The values below come from patent US11987588B2, “Modulators of the beta-3 adrenergic receptor useful for the treatment or prevention of heart failure and disorders related thereto” (Arena Pharmaceuticals, Inc., priority 2017, dated 2024).

Sequence of Beta-3 Adrenergic Receptor (P13945 whole entry, species assumed): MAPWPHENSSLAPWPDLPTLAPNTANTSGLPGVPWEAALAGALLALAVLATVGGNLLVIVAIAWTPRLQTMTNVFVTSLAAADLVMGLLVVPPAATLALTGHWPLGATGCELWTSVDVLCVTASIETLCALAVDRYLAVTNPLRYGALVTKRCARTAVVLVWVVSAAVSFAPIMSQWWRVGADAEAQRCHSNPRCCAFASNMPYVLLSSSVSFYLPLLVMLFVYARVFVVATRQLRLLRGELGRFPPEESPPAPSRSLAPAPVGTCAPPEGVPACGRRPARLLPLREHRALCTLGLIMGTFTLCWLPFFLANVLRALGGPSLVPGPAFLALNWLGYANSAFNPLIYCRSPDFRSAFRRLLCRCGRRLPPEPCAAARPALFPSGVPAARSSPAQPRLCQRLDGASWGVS

This assay addresses Beta-3 Adrenergic Receptor (Homo sapiens (Human), UniProt P13945). Description: Homogeneous Time-Resolved Fluorescence (HTRF) cAMP antagonist assay, IC50 determination. The assay is classed as cell-based. The settings on record: CHO-K1 cells stably expressing recombinant receptor, isoproterenol at EC90. In short, it runs like this: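 Antagonist mode: isoproterenol at its predetermined EC90 added after compound to recombinant CHO-K1 cells in IBMX-containing PBS, 1 h, room temperature. Compounds tested as 5-fold, 10-point dilutions, top final typically 10 or 100 μM. HTRF signal converted to cAMP via standard curve, giving IC50.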
A general note: TR-FRET usually uses a lanthanide donor and a delayed reading to cut background.
In the case of `CNS(=O)(=O)c1cccc(OC[C@@H](O)CN[C@H]2COC3(CCN(S(=O)(=O)c4cc5c(nc4O)OCCN5C)CC3)C2)c1` [Compound 454, 3-((S)-2-hydroxy-3-((R)-8-(6-hydroxy-1-methyl-2,3-dihydro-1H-pyrido[2,3-b][1,4]oxazin-7-ylsulfonyl)-1-oxa-8-azaspiro[4.5]decan-3-ylamino)propoxy)-N-methylbenzenesulfonamide], the IC50 (in general, the concentration at which inhibition is half-maximal) was 453 nM.

Turning to `CNS(=O)(=O)c1cccc(OC[C@@H](O)CNC2COC3(CCN(S(=O)(=O)c4ccc(OC)c(C)c4)CC3)C2)c1` (stereo partly drawn) [Compound 147, 3-((2S)-2-hydroxy-3-(8-(4-methoxy-3-methylphenylsulfonyl)-1-oxa-8-azaspiro[4.5]decan-3-ylamino)propoxy)-N-methylbenzenesulfonamide], the IC50 came out at 13 nM.

Regarding `CNS(=O)(=O)c1cccc(OC[C@@H](O)CN[C@@H]2COC3(CCN(S(=O)(=O)c4cc(C)ccc4F)CC3)C2)c1` [Compound 268, 3-((S)-3-((S)-8-(2-fluoro-5-methylphenylsulfonyl)-1-oxa-8-azaspiro[4.5]decan-3-ylamino)-2-hydroxypropoxy)-N-methylbenzenesulfonamide], the IC50 turned out to be 12.3 nM.

As to `CNS(=O)(=O)c1cccc(OC[C@@H](O)CN[C@H]2COC3(CCN(c4ncccn4)CC3)C2)c1` [Compound 576, 3-((S)-2-hydroxy-3-((R)-8-(pyrimidin-2-yl)-1-oxa-8-azaspiro[4.5]decan-3-ylamino)propoxy)-N-methylbenzenesulfonamide], the IC50 is 528 nM.

`CNS(=O)(=O)c1cccc(OC[C@@H](O)CNC2COC3(CCN(S(=O)(=O)c4cc(F)ccc4C)CC3)C2)c1` (stereo partly drawn) [Compound 204, 3-((2S)-3-(8-(5-fluoro-2-methylphenylsulfonyl)-1-oxa-8-azaspiro[4.5]decan-3-ylamino)-2-hydroxypropoxy)-N-methylbenzenesulfonamide]: the 50% inhibitory concentration (IC50) was found to be 12.1 nM.

Turning to `CCc1nc2cc(S(=O)(=O)N3CCC4(CC3)C[C@@H](NC[C@H](O)COc3cccc(S(=O)(=O)NC)c3)CO4)cnc2[nH]1` [Compound 515, 3-((S)-3-((R)-8-(2-ethyl-3H-imidazo[4,5-b]pyridin-6-ylsulfonyl)-1-oxa-8-azaspiro[4.5]decan-3-ylamino)-2-hydroxypropoxy)-N-methylbenzenesulfonamide], the IC50 turned out to be 74.9 nM.

Take `CNS(=O)(=O)c1cccc(OC[C@@H](O)CNC2COC3(CCN(S(=O)(=O)c4cc(F)ccc4OC)CC3)C2)c1` (stereo partly drawn) [Compound 238, 3-((2S)-3-(8-(5-fluoro-2-methoxyphenylsulfonyl)-1-oxa-8-azaspiro[4.5]decan-3-ylamino)-2-hydroxypropoxy)-N-methylbenzenesulfonamide]: the IC50 is 38.4 nM.

For the compound `CNS(=O)(=O)c1cccc(OC[C@@H](O)CN[C@H]2COC3(CCN(S(=O)(=O)c4cccc(-c5ccc(CC#N)cc5)c4)CC3)C2)c1` [Compound 294, 3-((S)-3-((R)-8-(4′-(cyanomethyl)biphenyl-3-ylsulfonyl)-1-oxa-8-azaspiro[4.5]decan-3-ylamino)-2-hydroxypropoxy)-N-methylbenzenesulfonamide], the IC50 was found to be 56.2 nM.

With `CNS(=O)(=O)c1cccc(OC[C@@H](O)CNC2COC3(CCN(S(=O)(=O)c4cccc(F)c4)CC3)C2)c1` (stereo partly drawn) [Compound 28, 3-((2S)-3-(8-(3-fluorophenylsulfonyl)-1-oxa-8-azaspiro[4.5]decan-3-ylamino)-2-hydroxypropoxy)-N-methylbenzenesulfonamide], the IC50 came to 16.2 nM.

For the compound `CCNS(=O)(=O)c1cccc(OC[C@@H](O)CNC2COC3(CCN(S(=O)(=O)c4ccc5c(c4)CCCC5)CC3)C2)c1` (stereo partly drawn) [Compound 231, N-ethyl-3-((2S)-2-hydroxy-3-(8-(5,6,7,8-tetrahydronaphthalen-2-ylsulfonyl)-1-oxa-8-azaspiro[4.5]decan-3-ylamino)propoxy)benzenesulfonamide], the IC50 came out at 72.6 nM.

`CN1CCOc2ncc(S(=O)(=O)N3CCC4(CC3)C[C@@H](NC[C@H](O)COc3cccc(S(=O)(=O)N[C@H]5CCC[C@@H]5O)c3)CO4)cc21` [Compound 427, 3-((S)-2-hydroxy-3-((R)-8-(1-methyl-2,3-dihydro-1H-pyrido[2,3-b][1,4]oxazin-7-ylsulfonyl)-1-oxa-8-azaspiro[4.5]decan-3-ylamino)propoxy)-N-((1S,2S)-2-hydroxycyclopentyl)benzenesulfonamide]: the IC50 is 184 nM.

Turning to `O=S(=O)(NCC1CC1)c1cccc(OC[C@@H](O)CNC2COC3(CCN(S(=O)(=O)c4ccc5ccccc5c4)CC3)C2)c1` (stereo partly drawn) [Compound 8, N-(cyclopropylmethyl)-3-((2S)-2-hydroxy-3-(8-(naphthalen-2-ylsulfonyl)-1-oxa-8-azaspiro[4.5]decan-3-ylamino)propoxy)benzenesulfonamide], the half-inhibitory concentration (IC50) turned out to be 38.7 nM.

In the case of `CNS(=O)(=O)c1cccc(OC[C@@H](O)CN[C@H]2COC3(CCN(S(=O)(=O)c4ccc5c(c4)N(C)CCO5)CC3)C2)c1` [Compound 300, 3-((S)-2-hydroxy-3-((R)-8-(4-methyl-3,4-dihydro-2H-benzo[b][1,4]oxazin-6-ylsulfonyl)-1-oxa-8-azaspiro[4.5]decan-3-ylamino)propoxy)-N-methylbenzenesulfonamide], the IC50 turned out to be 10.9 nM.

Regarding `CNS(=O)(=O)c1cccc(OC[C@@H](O)CNC2COC3(CCN(S(=O)(=O)c4cccc(Br)c4)CC3)C2)c1` (stereo partly drawn) [Compound 20, 3-((2S)-3-(8-(3-bromophenylsulfonyl)-1-oxa-8-azaspiro[4.5]decan-3-ylamino)-2-hydroxypropoxy)-N-methylbenzenesulfonamide], the IC50 was determined as 13.2 nM.

`CNS(=O)(=O)c1cccc(OC[C@@H](O)CNC2COC3(CCN(S(=O)(=O)c4cc5ccccc5o4)CC3)C2)c1` (stereo partly drawn) [Compound 326, 3-((2S)-3-(8-(benzofuran-2-ylsulfonyl)-1-oxa-8-azaspiro[4.5]decan-3-ylamino)-2-hydroxypropoxy)-N-methylbenzenesulfonamide]: the IC50 is 11.7 nM.

Consider `CNS(=O)(=O)c1cccc(OC[C@@H](O)CNC2COC3(CCN(S(=O)(=O)c4ccccc4C#N)CC3)C2)c1` (stereo partly drawn) [Compound 39, 3-((2S)-3-(8-(2-cyanophenylsulfonyl)-1-oxa-8-azaspiro[4.5]decan-3-ylamino)-2-hydroxypropoxy)-N-methylbenzenesulfonamide], for which the IC50 amounted to 30.7 nM.

Turning to `CNS(=O)(=O)c1cccc(OC[C@@H](O)CN[C@H]2COC3(CCN(S(=O)(=O)c4cnc5[nH]c(=O)n(C)c5c4)CC3)C2)c1` [Compound 522, 3-((S)-2-hydroxy-3-((R)-8-(1-methyl-2-oxo-2,3-dihydro-1H-imidazo[4,5-b]pyridin-6-ylsulfonyl)-1-oxa-8-azaspiro[4.5]decan-3-ylamino)propoxy)-N-methylbenzenesulfonamide], the IC50 was 22.2 nM.

Take `CNS(=O)(=O)c1cccc(OC[C@@H](O)CNC2COC3(CCN(S(=O)(=O)c4c(C)ccc5nonc45)CC3)C2)c1` (stereo partly drawn) [Compound 175, 3-((2S)-2-hydroxy-3-(8-(5-methylbenzo[c][1,2,5]oxadiazol-4-ylsulfonyl)-1-oxa-8-azaspiro[4.5]decan-3-ylamino)propoxy)-N-methylbenzenesulfonamide]: the IC50 was determined as 23.8 nM.

In the case of `CNS(=O)(=O)c1cccc(OC[C@@H](O)CNC2COC3(CCN(S(=O)(=O)c4cnn(-c5ccccc5)c4)CC3)C2)c1` (stereo partly drawn) [Compound 243, 3-((2S)-2-hydroxy-3-(8-(1-phenyl-1H-pyrazol-4-ylsulfonyl)-1-oxa-8-azaspiro[4.5]decan-3-ylamino)propoxy)-N-methylbenzenesulfonamide], the IC50 came to 26.2 nM.
